Here are results for four compounds from article PMC8584173, “The Cytotoxic Effect of Copper (II) Complexes with Halogenated 1,3-Disubstituted Arylthioureas on Cancer and Bacterial Cells” (International Journal of Molecular Sciences, 2021).

Molecules are shown by their SMILES. Some results are limits rather than exact numbers.

The subject of series [1] is S. aureus 495. Put plainly: MIC, hospital MRSA strain. Type of series: cell-based, Staphylococcus aureus. The conditions noted are these: hospital MRSA S. aureus 495. Here is the method:
(§1) The antimicrobial activity of the compounds was tested on Gram-positive bacteria (Staphylococcus aureus NCTC 4163, Staphylococcus aureus ATCC 25923, Staphylococcus aureus ATCC 6538, Staphylococcus aureus ATCC 29213, Staphylococcus epidermidis ATCC 12228, Staphylococcus epidermidis ATCC 35984), Gram-negative rods (Escherichia coli ATCC 10538, Escherichia coli ATCC 25922, Pseudomonas aeruginosa ATCC 15442, Pseudomonas aeruginosa ATCC 27863) and yeasts (Candida albicans ATCC 10231, Candida albicans ATCC 90028, Candida parapsilosis ATCC 22019). Hospital methicillin-resistant strains of Staphylococcus aureus and Staphylococcus epidermidis were obtained from the collection of the Department of Pharmaceutical Microbiology, Medical University of Warsaw, Poland.
(§2) Antifungal activities were assessed using Mueller–Hinton agar + 2% glucose and 0.5 µg/mL methylene blue dye medium. Sterile filter paper discs (9 mm diameter, Whatman Number 3 chromatography paper) were dripped with tested compound solutions (in dimethylsulfoxide, DMSO) to load 400 μg of a given compound per disc. Dry discs were placed on the surface of appropriate agar medium. The results (diameter of the growth inhibition zone) were read after 18 h of incubation at 35 °C. Minimal inhibitory concentration (MIC) was tested by the twofold serial microdilution method (in 96-well microtiter plates) using Mueller–Hinton broth medium (Beckton Dickinson) for bacteria or RPMI-1640 medium for Candida species, according to CLSI guidelines. The stock solution of tested agent was prepared in DMSO and diluted in sterile water. […] The final inoculum of all studied microorganisms was 10^5 CFU/ mL^−1 (colony forming units per ml). Minimal inhibitory concentrations (the lowest concentration of a tested agent that prevents visible growth of a microorganism) were read after 18 h (bacteria) or 24 h (yeasts) of incubation at 35 °C.

Series [2] concerns S. aureus 586. Put plainly: MIC, hospital MRSA strain. It is filed as cell-based, Staphylococcus aureus. Conditions: hospital MRSA S. aureus 586. The protocol:
as §1, §2

The test system of series [3] is S. aureus 568. Put plainly: MIC, hospital MRSA strain. Type of series: cell-based, Staphylococcus aureus. Conditions: hospital MRSA S. aureus 568. Here is the method:
as §1, §2

For series [4], the system named is S. aureus 498. Kind of series: MIC, hospital MRSA strain. It is filed as cell-based, Staphylococcus aureus. The conditions noted are these: hospital MRSA S. aureus 498. Here is the method:
as §1, §2

Series [5] concerns S. aureus 585. Kind of series: MIC, hospital MRSA strain. Type of series: cell-based, Staphylococcus aureus. The conditions noted are these: hospital MRSA S. aureus 585. Here is the method: as §1, §2
The subject of series [6] is S. aureus 567. Put plainly: MIC, hospital MRSA strain. Type of series: cell-based, Staphylococcus aureus. Conditions: hospital MRSA S. aureus 567. The protocol: as §1, §2
The test system of series [7] is S. aureus 537. Kind of series: MIC, hospital MRSA strain. Conditions: hospital MRSA S. aureus 537. Type of series: cell-based, Staphylococcus aureus. Here is the method: as §1, §2
The subject of series [8] is S. aureus 572. Kind of series: MIC, hospital MRSA strain. The conditions noted are these: for times more active than ciprofloxacin: S. aureus 572; for MIC: hospital MRSA S. aureus 572. It is filed as cell-based, Staphylococcus aureus. Here is the method: as §1, §2
Series [9] has as its system S. aureus 522. Put plainly: MIC, hospital MRSA strain. Type of series: cell-based, Staphylococcus aureus. Conditions: hospital MRSA S. aureus 522. The protocol: as §1, §2
The subject of series [10] is S. aureus 497. Kind of series: MIC, hospital MRSA strain. It is filed as cell-based, Staphylococcus aureus. The conditions noted are these: hospital MRSA S. aureus 497. Here is the method: as §1, §2
In series [11] the test system is S. aureus 496. Kind of series: MIC, hospital MRSA strain. It is filed as cell-based, Staphylococcus aureus. Conditions: hospital MRSA S. aureus 496. Here is the method: as §1, §2
Series [12] concerns S. aureus 514. Kind of series: MIC, hospital MRSA strain. The conditions noted are these: hospital MRSA S. aureus 514. It is filed as cell-based, Staphylococcus aureus. The protocol: as §1, §2
The subject of series [13] is S. aureus 573. Put plainly: MIC, hospital MRSA strain. It is filed as cell-based, Staphylococcus aureus. Conditions: hospital MRSA S. aureus 573. Here is the method: as §1, §2
The test system of series [14] is S. aureus 481. Put plainly: MIC, hospital MRSA strain. It is filed as cell-based, Staphylococcus aureus. Conditions: for times more active than ciprofloxacin: S. aureus 481; for MIC: hospital MRSA S. aureus 481. Here is the method: as §1, §2
Series [15] deals with Bacillus subtilis H17 (rec+). Kind of series: Bacillus subtilis rec-assay, H17. Type of series: cell-based. Conditions: B. subtilis H17; 256 µg per disc (NOQ 2 µg per disc). Here is the method: (§3) DNA-damaging activity of compounds was tested by rec-assay using two genetically modified Bacillus subtilis strains: M45 (rec^−) and H17 (rec^+). Tested compounds were dissolved in DMSO, and 10 µL of each solution was dripped onto sterile cotton discs (Rotilabo) to load 256 µg of a given compound per 9 mm disc. Discs were placed on the surface nutrient agar plates (Difco), inoculated with 100 µL of bacterial overnight culture and incubated […] at 35 °C. After incubation, the growth inhibition zones were measured. […] Results of the genotoxicity test were estimated after 18 h of incubation at 35 °C by comparing the diameter of the inhibition zone on the B. subtilis M45 (rec^−) strain with that on the B. subtilis H17 (rec^+) strain.

Series [16] has as its system Bacillus subtilis M45 (rec−). Kind of series: Bacillus subtilis rec-assay, M45. Type of series: cell-based. The conditions noted are these: B. subtilis M45; 256 µg per disc (NOQ 2 µg per disc). Here is the method:
as §3

The subject of series [17] is P. aeruginosa ATCC 15442. Kind of series: MIC, twofold serial microdilution. It is filed as cell-based, Pseudomonas aeruginosa. Conditions: P. aeruginosa ATCC 15442, 18 h, 35 °C. The protocol:
as §1, §2

The test system of series [18] is P. aeruginosa ATCC 27853. Put plainly: MIC, twofold serial microdilution. Type of series: cell-based, Pseudomonas aeruginosa. Conditions: P. aeruginosa ATCC 27853, 18 h, 35 °C. The protocol: as §1, §2
Background: In broth dilution the organism is exposed to a series of concentrations in liquid medium.

Series [19] concerns HaCaT (human immortal keratinocyte cell line). Put plainly: MTT cytotoxicity assay, HaCaT. Conditions: HaCaT normal cells, 72 h. Type of series: cell-based. The protocol: The human primary (SW480), metastatic (SW620) colon cancer, metastatic prostate cancer (PC3) and human immortal keratinocyte (HaCaT) cell lines were purchased from the American Type Culture Collection (ATCC, Rockville, USA). The cells were cultured in medium according to protocols (MEM for SW480 and SW620, RPMI 1640 for PC3 and DMEM for HaCaT cells) supplemented with 10% fetal bovine serum (FBS), penicillin (100 U/mL) and streptomycin (100 μg/mL) and cultured in 37 °C/ 5% CO2 humidified incubator. The cells were cultured until appropriate confluence was achieved (80–90%). Next, they were harvested by treatment with 0.25% trypsin (Gibco Life Technologies, USA) and used for studies.
Cells without studied compounds in medium were used as a control.
The cell viability was assessed by determination of MTT salt (3-(4,5-dimethylthiazol-2-yl)-2,5-diphenyltetrazolium bromide) conversion by mitochondrial dehydrogenase. MTT assay was performed as previously described. Experiments were repeated three times. Cell viability was presented as a percentage of MTT reduction in the treated cells versus the control cells. Number of viable cells cultured without studied compounds was assumed to be 100%. Decreased relative MTT level means decreased cell viability. Thiourea complexes with the highest cytotoxic potential assessed by MTT determination (with the lowest IC50) were chosen for subsequent assessments of cytotoxicity mechanisms.
A general note: Formazan colour is commonly taken as a measure of viable cells.

By MIC is commonly meant the lowest concentration found to suppress growth. The term IC50 denotes the concentration that inhibits the measured activity by half.

On to `O=[N+]([O-])c1cc([N+]2=C(Nc3ccc(F)c(Cl)c3)[S][Cu-2]23[S]C(Nc2ccc(F)c(Cl)c2)=[N+]3c2ccc(Cl)c([N+](=O)[O-])c2)ccc1Cl` [Compound 4, Copper (II) complex with 1-(3-chloro-4-fluorophenyl)-3-(4-chloro-3-nitrophenyl)thiourea], for which the MIC in [1], in series [2], in [3], in series [4], in series [5] and in series [6] was 4 µg/mL in each case. The MIC was found to be 4 µg/mL in series [7]; 4 µg/mL in series [8]; 4 µg/mL in series [9]; 8 µg/mL in series [10]; 8 µg/mL in [11]; 4 µg/mL in series [12]. For the same compound, the MIC was found to be 4 µg/mL in series [13], 4 µg/mL in series [14], 128 µg/mL in [17] and 128 µg/mL in series [18]. Further, the “times more active than ciprofloxacin” value in series [8] and in series [14] was 64 times in each case. Moreover, the figures for the inhibition zone diameter in [15] and in [16] were 16 mm and 18 mm, respectively. For the same compound, the midpoint of inhibition in series [19], the IC50, lay at 121 ± 5.2 µM.
Regarding `O=[N+]([O-])c1cc([N+]2=C(Nc3ccc(Cl)c(Cl)c3)[S][Cu-2]23[S]C(Nc2ccc(Cl)c(Cl)c2)=[N+]3c2ccc(Cl)c([N+](=O)[O-])c2)ccc1Cl` [Compound 5, Copper (II) complex with 1-(4-chloro-3-nitrophenyl)-3-(3,4-dichlorophenyl)thiourea], the MIC in series [1], in series [2], in series [3], in series [4], in series [5] and in series [6] was 16 µg/mL throughout. In addition, the MIC in series [7] is given as 16 µg/mL; in [8] it was 16 µg/mL; in series [9], 16 µg/mL; in [10], 16 µg/mL; in [11] it was 32 µg/mL; in series [12], 32 µg/mL. Moreover, the MIC turned out to be 16 µg/mL in series [13], 16 µg/mL in series [14], 128 µg/mL in [17] and 128 µg/mL in [18]. Besides, the figures for the inhibition zone diameter in series [15] and in series [16] were 17 mm and 18 mm, respectively. In [19], this compound displayed an IC50 of 165 ± 4.7 µM.
Take `O=[N+]([O-])c1cc(NC2=[N+](c3ccc(Cl)c([N+](=O)[O-])c3)[Cu-2]3([S]2)[S]C(Nc2ccc(Cl)c([N+](=O)[O-])c2)=[N+]3c2ccc(Cl)c([N+](=O)[O-])c2)ccc1Cl` [Compound 6, Copper (II) complex with 1,3-bis(4-chloro-3-nitrophenyl)thiourea]: the MIC in series [1], in series [2], in series [3], in [4], in [5] and in series [6] was 32 µg/mL each time. In addition, the MIC in [7], in series [8], in [9], in series [10], in series [11] and in series [12] was 32 µg/mL in each case. The MIC in series [13] was found to be 32 µg/mL; in series [14] it was 32 µg/mL; in series [17] it was 128 µg/mL; in series [18] it was 128 µg/mL. Further, the inhibition zone diameter in series [15] was determined as 16 mm; in series [16], 15 mm. The same compound gave an IC50 in series [19] of 123 ± 2.1 µM.
`O=[N+]([O-])c1cc([N+]2=C(Nc3ccccc3F)[S][Cu-2]23[S]C(Nc2ccccc2F)=[N+]3c2ccc(Cl)c([N+](=O)[O-])c2)ccc1Cl` [Compound 7, Copper (II) complex with 1-(2-fluorophenyl)-3-(4-chloro-3-nitrophenyl)thiourea]: the minimum inhibitory concentration (MIC) in series [1] is reported as 8 µg/mL; in [2] it was 8 µg/mL; in series [3], 8 µg/mL; in series [4] it was 4 µg/mL; in series [5], 8 µg/mL; in [6], 4 µg/mL. Also, the minimal inhibitory concentration (MIC) in series [7] was 8 µg/mL; in series [8], 4 µg/mL; in [9] it was 8 µg/mL; in series [10], 8 µg/mL; in [11], 8 µg/mL; in series [12], 8 µg/mL. Also, the MIC is 8 µg/mL in [13], 4 µg/mL in series [14], greater than 256 µg/mL in series [17] and 128 µg/mL in [18]. The “times more active than ciprofloxacin” value in series [8] and in series [14] was 64 times in each case. The inhibition zone diameter in series [15] is 15 mm; in series [16] it was 18 mm. Further, in series [19], 138 ± 4.4 µM corresponded to half-maximal inhibition (IC50).
